Experimental data taken from patent US6645996B1, “Physiologically active substances” (Mercian Corporation and Eisai Co., Ltd., priority 1998, dated 2003).

Experiments:
aorta pieces of rat = assay: Inhibition of capillary formation in rat aorta model (aorta pieces cultured in collagen gel); format: cell-based; conditions: 7th day from addition of sample
Experimental: In a method of screening the antiangiogenic effect, the degree of inhibition to the formation of lumens observed when an aortic fragment of a rat is cultured in a collagen gel was selected as an indicator (Nicosia R. F., Lab. Invest., 63, 115, 1990). Also, for the purpose of analyzing the mechanism of action of the antiangiogenic effect of the resulting compound, measurements were made concerning the effect of inhibiting the growth of endothelial cells by using endothelial cells derived from the human umbilical cord vein and the effect of inhibiting the expression of an adhesion molecules on endothelial cells.
The antiangiogenic potency was evaluated by the inhibition of capillary formation in rat aorta model in which aorta pieces of rat were cultured in collagen gel. That is, the aorta excised from male rat of Sprague-Dawley strain (8-12 weeks age) was washed with a Hanks' solution so that fat tissues around there were removed minutely. The aorta was incised to prepare pieces of 2 mm square and they were allowed to stand in a 24-well plate holding the endothelial cells upside. Then, 500 μl of neutralized Type I collagen (Cell Matrix Type I-A; manufactured by Nitta Gelatin) were poured over each well and allowed to stand at room temperature for about 20 minutes in a clean bench to solidify the gel. After gelling, 500 μl of MCDB 131 medium (manufactured by Chlorella Kogyo) were added thereto followed by incubating in a Co2 incubator (5% CO2) at 37° C. On the next day, the culture medium was exchanged with 500 μl of MCDB 131 medium containing the sample and the incubation was continued. And, at the stage of the 7th day from the addition of the sample, numbers of capillaries formed around the aorta were counted. The IC50 value of each sample is defined as a concentration that the number of blood capillaries is 50% of that observed when no sample was added.

[1] = Safety of VD1207 analogues, intraperitoneal administration over 4 days; format: in vivo; design: key to Blood (WBC) / Blood (PLAT) / Biochemistry (UN) / Biochemistry (GPT) / Weight (liver) / Weight (kidney) / Weight (lung) / Weight (spleen) / Body weight / Blood (RBC): —: “-” indicates no abnormality; “↑” and “↓” indicate an increase and a decrease, respectively; “↑” and “↓” indicate an increase and a decrease, respectively
Experimental: Each of VD1207B, C, D, E, F and G2 was continuously administered intraperitoneally at each dose of 1 mg/kg and 2 mg/kg over 4 days to examine the safety of VD1207 analogues.

[2] = system: Endothelial cells derived from human umbilical vein (HUVEC); assay: Inhibitory effect of growth of endothelial cells (MTT method); format: cell-based; conditions: three days
Experimental: Endothelial cells derived from human umbilical vein (HUVEC; manufactured by Sanko Junyaku) incubated in an EGM medium (manufactured by Sanko Junyaku) were adjusted to 1×10^4 cells/ml and each 100 μl were separately placed on a 96-well plate. After incubating overnight, 100 μl of medium containing sample were added thereto followed by incubating for three days. The cell numbers at that time were measured by MTT method. That is, 50 μl of PBS solution containing 0.33% of 3-(4,5-dimethylthiazol-2-yl)-2,5-diphenyltetrazolium bromide (MTT) was added thereto and incubation was continued for further 3-4 hours. After the supernatant liquid of the culture was removed, 100 μl of DMSO was added to dissolve a formazane which was formed in the cells and the absorbance at the wave length of 460 nm was measured by use of plate reader. The IC50 value is defined as a concentration that the absorbance was 50% of that observed when no sample was added.

[3] = Solubility (analysis data); format: physicochemical
E-selectin = assay: Inhibition of TNFα-induced expression of adhesion molecule E-selectin on endothelial cells; format: cell-based, human; conditions: HUVEC, TNFα 1 ng/ml, 4 hours
Experimental: (§1) Endothelial cells derived from human umbilical vein (HUVEC) were cultured on a 96-well plate until they were fallen in a confluent state. The culture broth was removed. After 150 μl of a new culture broth was added to each well, 20 μl of a sample solution was added thereto. After 15 minutes, 30 μl of TNFα was added such that the final concentration became 1 ng/ml and it was incubated at 37° C. for 4 hours in a 5% CO2 incubator. Next, the culture broth was removed and the cells were washed twice with a phosphate buffer (PBS). Further, a PBS solution containing 0.025% glutaraldehyde was added and the well was allowed to stand at room temperature for 6 minutes to fix the cells. After the cells were immobilized, they were washed twice with 200 μl of phosphate buffer (PBSA) containing 0.25% BSA. Thereafter 100 μl of a PBSA solution containing 1 μg/ml of mouse anti-human VCAM-1 (R&D systems) or a mouse anti-human E-selectin antibody (R&D systems) was added to each well. The well was allowed to stand at room temperature for 30 minutes and then the cells were again washed. A PBSA solution containing 100 μl of peroxidase-conjugated goat anti-mouse antibody (Cosmo Bio Co., Ltd.) was added to the well. Then the well was allowed to stand at room temperature for 30 minutes and thereafter the cells were washed. In succession, 100 μl of 3,3*,5,5*-tetramethylbenzyidine (TMB) substrate solution was added to develop a color. Next, the coloring was stopped by 100 μl of 1M phosphoric acid to measure the absorbance at 450 nm.

VCAM-1 = assay: Inhibition of TNFα-induced expression of adhesion molecule VCAM-1 on endothelial cells; format: cell-based, human; conditions: HUVEC, TNFα 1 ng/ml, 4 hours
Experimental: as §1

[4] = 1 mg/kg i.p. 4 days, listed as B
[5] = 2 mg/kg i.p. 4 days, listed as B
[6] = 2 mg/kg i.p. 4 days, listed as F
[7] = 2 mg/kg i.p. 4 days, listed as E

Row | Compound | Biochemistry (GPT) ([1]; 1 mg/kg i.p. 4 days) | Biochemistry (UN) ([1]; 1 mg/kg i.p. 4 days) | Blood (PLAT) ([1]; 1 mg/kg i.p. 4 days) | Blood (RBC) ([1]; 1 mg/kg i.p. 4 days) | Blood (WBC) ([1]; 1 mg/kg i.p. 4 days) | Body weight ([1]; 1 mg/kg i.p. 4 days) | Weight (liver) ([1]; 1 mg/kg i.p. 4 days) | Weight (spleen) ([1]; 1 mg/kg i.p. 4 days) | Biochemistry (GPT) ([1]; 2 mg/kg i.p. 4 days) | Biochemistry (UN) ([1]; 2 mg/kg i.p. 4 days) | Blood (RBC) ([1]; 2 mg/kg i.p. 4 days) | Blood (WBC) ([1]; 2 mg/kg i.p. 4 days) | Weight (liver) ([1]; 2 mg/kg i.p. 4 days) | Weight (spleen) ([1]; 2 mg/kg i.p. 4 days) | Solubility in ethyl acetate, chloroform and dimethyl sulfoxide [3] | Solubility in neutral water [3] | E-select (IC50 of expression) (E-selectin) [µg/mL] | Weight (lung) ([1]; 1 mg/kg i.p. 4 days) | IC50 (number of blood capillaries 50% of that without sample) (aorta pieces of rat) [µg/mL] | IC50 (growth of endothelial cells, absorbance 50% of no sample) [2] [µg/mL] | further results
1 | CCCC(C(=O)c1cc(C(OC)C(C)C)c(O)c(C=O)c1O)C1CC(O)C2(OC2CC)C(O)O1 (single isomer, unassigned) [VD1207 B] | — | — | — | — | — | — | ↑ | — | — | — | — | — | ↑ | — | soluble | insoluble | 4.0 |  |  |  | IC50 (number of blood capillaries 50% of that without sample) (aorta pieces of rat; listed as B): 0.053 µg/mL; Weight (kidney) [1, 4]: —; Weight (lung) [1, 4]: —; Blood (PLAT) [1, 5]: —; Body weight [1, 5]: —; Weight (kidney) [1, 5]: —; Weight (lung) [1, 5]: —; IC50 (growth of endothelial cells, absorbance 50% of no sample) ([2]; listed as B): 0.24 µg/mL; VCAM-1 (IC50 of expression) (VCAM-1): 2.48 µg/mL
2 | CCC1OC12C(O)CC(C(CC(C)C)C(=O)c1cc(C(OC)C(C)C)c(O)c(C=O)c1O)OC2O (single isomer, unassigned) [VD1207 F] |  |  |  |  | — |  |  |  | — | — | — | ↓ | ↑ | — | soluble | insoluble |  | — |  |  | IC50 (number of blood capillaries 50% of that without sample) (aorta pieces of rat; listed as F): 0.067 µg/mL; Weight of each of the liver, kidney and lung (autoptic findings) ([1]; 1 mg/kg and 2 mg/kg i.p. 4 days): increase; Weight (kidney) ([1]; 1 mg/kg i.p. 4 days, listed as F): ↑; Blood (PLAT) ([1]; 2 mg/kg i.p. 4 days): —; Body weight ([1]; 2 mg/kg i.p. 4 days): —; Weight (kidney) [1, 6]: ↑; Weight (lung) [1, 6]: ↑; IC50 (growth of endothelial cells, absorbance 50% of no sample) ([2]; listed as F): 0.06 µg/mL; E-select (IC50 of expression) (E-selectin; listed as F): 0.84 µg/mL; VCAM-1 (IC50 of expression) (VCAM-1; listed as F): <0.63 µg/mL
3 | CCC1OC12C(O)CC(C(CC(C)C)C(=O)c1cc(C(=O)C(C)C)c(O)cc1O)OC2O (single isomer, unassigned) [VD1207 A2] |  |  |  |  |  |  |  |  |  |  |  |  |  |  | soluble | insoluble |  |  | 1 |  | IC50 (growth of endothelial cells, absorbance 50% of no sample) ([2]; listed as A2): 18.7 µg/mL
4 | CCCC(C(=O)c1cc(CC(C)C)c(O)c(C(C)=O)c1O)C1CC(O)C2(OC2CC)C(O)O1 (stereo not drawn) [VD1207 H] |  |  |  |  |  |  |  |  |  |  |  |  |  |  | soluble | insoluble | 2.48 |  | 0.38 | 0.52 | VCAM-1 (IC50 of expression) (VCAM-1): 1.06 µg/mL
5 | CCCC(C(=O)c1cc(CC(C)C)c(O)c(C=O)c1O)C1CC(O)C2(OC2CC)C(O)O1 (stereo not drawn) [VD1207 D] | — | — | — | — | — | — | ↑ | — | — | — | — | — | ↑ | — | soluble | insoluble | 1.40 | — | 0.019 | 0.18 | Weight (kidney) ([1]; 1 mg/kg i.p. 4 days): —; Blood (PLAT) ([1]; 2 mg/kg i.p. 4 days): —; Body weight ([1]; 2 mg/kg i.p. 4 days): —; Weight (kidney) ([1]; 2 mg/kg i.p. 4 days): —; Weight (lung) ([1]; 2 mg/kg i.p. 4 days): —; VCAM-1 (IC50 of expression) (VCAM-1): 1.11 µg/mL
6 | CCC1OC12C(O)CC(C(CC(C)C)C(=O)c1cc(C(OC)C(C)C)c(O)c(C=O)c1O)OC2O (single isomer, unassigned) [VD1207 E] | — | — | — | — | — | — | ↑ | — |  |  |  | ↓ |  |  | soluble | insoluble |  | — |  |  | IC50 (number of blood capillaries 50% of that without sample) (aorta pieces of rat; listed as E): 0.047 µg/mL; Weight (kidney) ([1]; 1 mg/kg i.p. 4 days, listed as E): —; Weight (kidney) [1, 7]: —; Weight (lung) [1, 7]: —; IC50 (growth of endothelial cells, absorbance 50% of no sample) ([2]; listed as E): 0.21 µg/mL; E-select (IC50 of expression) (E-selectin; listed as E): 4.44 µg/mL; VCAM-1 (IC50 of expression) (VCAM-1; listed as E): 2.59 µg/mL
7 | CCC1OC12C(O)CC(C(CC(C)C)C(=O)c1cc(CC(C)C)c(O)c(C=O)c1O)OC2O (stereo not drawn) [VD1207 G2] | — | — | — | — | — | — | ↑ | — | — | — | — | ↓ | ↑ | — | soluble | insoluble |  | — | 0.034 | 0.07 | Weight (kidney) ([1]; 1 mg/kg i.p. 4 days): —; Blood (PLAT) ([1]; 2 mg/kg i.p. 4 days): —; Body weight ([1]; 2 mg/kg i.p. 4 days): —; Weight (kidney) ([1]; 2 mg/kg i.p. 4 days): —; Weight (lung) ([1]; 2 mg/kg i.p. 4 days): —
8 | CCC1OC12C(O)CC(C(CC(C)C)C(=O)c1cc(C(=O)C(C)C)c(O)cc1O)OC2O (single isomer, unassigned) [VD1207 A1] |  |  |  |  |  |  |  |  |  |  |  |  |  |  | soluble | insoluble |  |  |  |  | IC50 (growth of endothelial cells, absorbance 50% of no sample) ([2]; listed as A1): 17.6 µg/mL
9 | CCCC(C(=O)c1cc(CC(C)C)c(O)c(C=O)c1O)C1CC(O)C2(OC2CCC)C(O)O1 (stereo not drawn) [VD1207 G1] |  |  |  |  |  |  |  |  |  |  |  |  |  |  | soluble | insoluble |  |  | 0.070 | 0.11 | 
